Patent EP0620225B1, “Cephalosporin derivatives” (Basilea Pharmaceutica AG, priority 1993, dated 1994)
Where a name gives a salt, the structure may show the parent alone. Read-outs that look alike come from different tables or passages of the source.

How the values were obtained:
[1] = test system: Str. pneumoniae 6301; assay: MIC, agar dilution method in Mueller Hinton agar; format: cell-based
Procedure: (§1) In vitro activity was determined by minimum inhibitory concentration in a microorganism spectum by the agar dilution method in Mueller Hinton agar.

[2] = test system: Staph. aureus ATCC 29213; assay: MIC, agar dilution method in Mueller Hinton agar; format: cell-based; conditions: Staphylococcus aureus, ATCC29213, read-out: Minimum Inhibiting Concentration Values
Procedure: as §1

[3] = test system: Str. pyogenes 4; assay: MIC, agar dilution method in Mueller Hinton agar; format: cell-based; conditions: Streptococcus pyogenes, read-out: Minimum Inhibiting Concentration Values
Procedure: as §1

[4] = test system: E. coli TEM-1; assay: MIC, agar dilution method in Mueller Hinton agar; format: cell-based; conditions: Escherichia coli, TEM1, read-out: Minimum Inhibiting Concentration Values
Procedure: as §1

[5] = test system: Ps. aeruginosa ATCC 27853; assay: MIC, agar dilution method in Mueller Hinton agar; format: cell-based; conditions: Pseudomonas aeruginosa, ATCC27853, read-out: Minimum Inhibiting Concentration Values
Procedure: as §1

[6] = test system: Ps. aeruginosa 5712; assay: MIC, agar dilution method in Mueller Hinton agar; format: cell-based; conditions: Pseudomonas aeruginosa, read-out: Minimum Inhibiting Concentration Values
Procedure: as §1

[7] = test system: Staph. aureus Smith; assay: MIC, agar dilution method in Mueller Hinton agar; format: cell-based; conditions: Staphylococcus aureus, read-out: Minimum Inhibiting Concentration Values
Procedure: as §1

[8] = test system: Prot. vulgaris ATCC 6380; assay: MIC, agar dilution method in Mueller Hinton agar; format: cell-based; conditions: Proteus vulgaris, ATCC6380, read-out: Minimum Inhibiting Concentration Values
Procedure: as §1

[9] = test system: E. coli ATCC 25922; assay: MIC, agar dilution method in Mueller Hinton agar; format: cell-based; conditions: Escherichia coli, ATCC25922, read-out: Minimum Inhibiting Concentration Values
Procedure: as §1

[10] = test system: Escherichia coli 25922; assay: Efficacy against systemic infections (septicemia) in mice; format: in vivo; conditions: 96 h, Escherichia coli 25922, po (orally) 1 and 3 h after challenge, survival day 4
Procedure, shortened: (§2)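 Swiss albino mice (16–20 g) infected i.p. with 4–10× the 48-h LD50 of each strain; compound given p.o. or s.c. at 1 and 3 h post-challenge, plus 5 h for P. aeruginosa BA. Five mice per group; ED50 (mg/kg) by probit analysis of day-4 survival.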

[11] = test system: Streptococcus pyogenes 15; assay: as above; format: in vivo; conditions: 96 h, Streptococcus pyogenes 15, po (orally) 1 and 3 h after challenge, survival day 4
Procedure, shortened: as §2

[12] = test system: Pseudomonas aeruginosa BA; assay: as above; format: in vivo; conditions: 96 h, sc (subcutaneous) 1, 3 and 5 h after challenge, survival day 4
Procedure, shortened: as §2

| SMILES | MIC ([1]; Streptococcus pneumoniae, 6301, read-out: Minimum Inhibiting Concentration Values) [µg/mL] | MIC [2] [µg/mL] | MIC [3] [µg/mL] | MIC [4] [µg/mL] | MIC [5] [µg/mL] | MIC [6] [µg/mL] | MIC [7] [µg/mL] | MIC [8] [µg/mL] | MIC [9] [µg/mL] | ED50 [10] [mg/kg] | ED50 [11] [mg/kg] | ED50 [12] [mg/kg] | MIC ([1]; Streptococcus pneumoniae, Str. pneumoniae 6301, read-out: Minimum Inhibiting Concentration Values) [µg/mL] |
| --- | --- | --- | --- | --- | --- | --- | --- | --- | --- | --- | --- | --- | --- |
| Nc1nc(/C(=N/OCC(=O)O)C(=O)N[C@@H]2C(=O)N3C(C(=O)O)=C(/C=C4\CCN(CC(F)(F)F)C4=O)CS[C@H]23)cs1 [A, [6R-[3(E),6α,7β(Z)]]-7-[[(2-Amino-4-thiazolyl)[(carboxy-methoxy)imino]-acetyl]amino]-3-[[1-(2,2,2-trifluoroethyl)-2-oxo-3-pyrrolidinylidene]-methyl]-8-oxo-5-thia-1-aza-bicyclo[4.2.0]oct-2-ene-2-carboxylic acid disodium salt] | 0.0625 | 16 | 0.125 | 0.0625 | 8 | 8 | 8 | ≤ 0.0156 | 0.0625 | < 0.1 | > 0.8 | 12 | – |
| Nc1nc(/C(=N/OCC(=O)O)C(=O)N[C@@H]2C(=O)N3C(C(=O)O)=C(/C=C4\CCN(C5CC5)C4=O)CS[C@H]23)cs1 [C, [6R-[3(E),6α,7β(Z)]]-7-[[(2-Amino-4-thiazolyl)[(carboxy-methoxy)imino]-acetyl]amino]-3-[[1-cyclopropyl-2-oxo-3-pyrrolidinylidene]-methyl]-8-oxo-5-thia-1-azabicyclo[4.2.0]oct-2-ene-2-carboxylic acid disodium salt] | – | 16 | 0.125 | 0.0313 | 4 | 4 | 8 | ≤ 0.0156 | 0.0313 | < 0.1 | 0.78 | 12 | 0.0625 |
